Measured values reported in paper doi:10.1101/2021.09.30.462449v1 (biorxiv, 2021).

Experiments:
Experiment in all cases: biochemical
Conditions in all cases: read-out: % inhibition mean (Z'Lyte)
GRK7 = GRK7 (Homo sapiens, UniProt Q8WTQ7)
MERTK (cMER) = MERTK (cMER) (Homo sapiens, UniProt Q12866)
IGF1R = IGF1R (Homo sapiens, UniProt P08069)
CDK5/p35 = CDK5/p35 (Homo sapiens, UniProt Q00535)
PHKG1 = PHKG1 (Homo sapiens, UniProt Q16816)
KIT V559D V654A = KIT V559D V654A (Homo sapiens, UniProt P10721, V559D/V654A)
MAP4K5 (KHS1) = MAP4K5 (KHS1) (Homo sapiens, UniProt Q9Y4K4)
DNA-PK = DNA-PK (Homo sapiens, UniProt P78527)
FGFR3 K650E = FGFR3 K650E (Homo sapiens, UniProt P22607, K650E)
TEK (Tie2) = TEK (Tie2) (Homo sapiens, UniProt Q02763)
MAPK10 (JNK3) = MAPK10 (JNK3) (Homo sapiens, UniProt P53779)
MET M1250T = MET M1250T (Homo sapiens, UniProt P08581, M1250T)
EPHB4 = EPHB4 (Homo sapiens, UniProt P54760)
AMPK (A1/B2/G3) = AMPK (A1/B2/G3) (Homo sapiens, UniProt Q13131)
CSNK1E (CK1 epsilon) = CSNK1E (CK1 epsilon) (Homo sapiens, UniProt P49674)
JAK2 JH1 JH2 V617F = JAK2 JH1 JH2 V617F (Homo sapiens, UniProt O60674, V617F)
CHEK1 (CHK1) = CHEK1 (CHK1) (Homo sapiens, UniProt O14757)
CDC42 BPB (MRCKB) = CDC42 BPB (MRCKB) (Homo sapiens, UniProt Q9Y5S2)
PDGFRA (PDGFR alpha) = PDGFRA (PDGFR alpha) (Homo sapiens, UniProt P16234)
FLT4 (VEGFR3) = FLT4 (VEGFR3) (Homo sapiens, UniProt P35916)
RPS6KB2 (p70S6Kb) = RPS6KB2 (p70S6Kb) (Homo sapiens, UniProt Q9UBS0)
IKBKE (IKK epsilon) = IKBKE (IKK epsilon) (Homo sapiens, UniProt Q14164)
ERBB2 (HER2) = ERBB2 (HER2) (Homo sapiens, UniProt P04626)
ROS1 = ROS1 (Homo sapiens, UniProt P08922)
INSRR (IRR) = INSRR (IRR) (Homo sapiens, UniProt P14616)
NEK4 = NEK4 (Homo sapiens, UniProt P51957)
MAP3K8 (COT) = MAP3K8 (COT) (Homo sapiens, UniProt P41279)
AKT2 (PKB beta) = AKT2 (PKB beta) (Homo sapiens, UniProt P31751)

JAK2 JH1 JH2 V617F, sequence (O60674 whole entry V617F): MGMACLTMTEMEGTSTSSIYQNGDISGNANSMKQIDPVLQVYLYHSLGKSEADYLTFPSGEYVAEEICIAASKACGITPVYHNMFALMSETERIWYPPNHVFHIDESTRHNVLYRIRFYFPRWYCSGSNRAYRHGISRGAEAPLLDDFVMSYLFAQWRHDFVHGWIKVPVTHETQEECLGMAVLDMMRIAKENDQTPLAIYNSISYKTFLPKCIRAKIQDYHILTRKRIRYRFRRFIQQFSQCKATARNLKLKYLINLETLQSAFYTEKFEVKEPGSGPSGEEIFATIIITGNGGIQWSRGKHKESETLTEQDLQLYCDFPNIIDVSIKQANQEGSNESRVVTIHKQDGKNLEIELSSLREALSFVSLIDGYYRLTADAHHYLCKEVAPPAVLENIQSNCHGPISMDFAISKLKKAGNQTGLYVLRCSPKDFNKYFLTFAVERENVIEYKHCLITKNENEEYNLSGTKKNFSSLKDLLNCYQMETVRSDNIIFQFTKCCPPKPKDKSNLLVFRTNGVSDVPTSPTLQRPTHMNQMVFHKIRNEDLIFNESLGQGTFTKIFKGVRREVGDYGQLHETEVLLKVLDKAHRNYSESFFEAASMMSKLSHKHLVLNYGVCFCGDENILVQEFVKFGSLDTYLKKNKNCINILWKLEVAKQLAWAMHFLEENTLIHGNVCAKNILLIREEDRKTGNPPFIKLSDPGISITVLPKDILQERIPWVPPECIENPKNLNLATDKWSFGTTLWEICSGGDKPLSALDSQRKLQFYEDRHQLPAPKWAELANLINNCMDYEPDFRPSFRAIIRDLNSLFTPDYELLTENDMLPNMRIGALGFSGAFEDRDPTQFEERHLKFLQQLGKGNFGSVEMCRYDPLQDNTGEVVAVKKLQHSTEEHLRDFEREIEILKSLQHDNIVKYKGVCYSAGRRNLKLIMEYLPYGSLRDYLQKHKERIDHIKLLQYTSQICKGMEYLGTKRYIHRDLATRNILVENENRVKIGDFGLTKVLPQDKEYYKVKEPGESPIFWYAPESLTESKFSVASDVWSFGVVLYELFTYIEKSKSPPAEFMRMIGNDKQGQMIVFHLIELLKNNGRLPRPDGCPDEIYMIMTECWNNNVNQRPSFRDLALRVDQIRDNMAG
KIT V559D V654A, sequence (P10721 whole entry V559D/V654A): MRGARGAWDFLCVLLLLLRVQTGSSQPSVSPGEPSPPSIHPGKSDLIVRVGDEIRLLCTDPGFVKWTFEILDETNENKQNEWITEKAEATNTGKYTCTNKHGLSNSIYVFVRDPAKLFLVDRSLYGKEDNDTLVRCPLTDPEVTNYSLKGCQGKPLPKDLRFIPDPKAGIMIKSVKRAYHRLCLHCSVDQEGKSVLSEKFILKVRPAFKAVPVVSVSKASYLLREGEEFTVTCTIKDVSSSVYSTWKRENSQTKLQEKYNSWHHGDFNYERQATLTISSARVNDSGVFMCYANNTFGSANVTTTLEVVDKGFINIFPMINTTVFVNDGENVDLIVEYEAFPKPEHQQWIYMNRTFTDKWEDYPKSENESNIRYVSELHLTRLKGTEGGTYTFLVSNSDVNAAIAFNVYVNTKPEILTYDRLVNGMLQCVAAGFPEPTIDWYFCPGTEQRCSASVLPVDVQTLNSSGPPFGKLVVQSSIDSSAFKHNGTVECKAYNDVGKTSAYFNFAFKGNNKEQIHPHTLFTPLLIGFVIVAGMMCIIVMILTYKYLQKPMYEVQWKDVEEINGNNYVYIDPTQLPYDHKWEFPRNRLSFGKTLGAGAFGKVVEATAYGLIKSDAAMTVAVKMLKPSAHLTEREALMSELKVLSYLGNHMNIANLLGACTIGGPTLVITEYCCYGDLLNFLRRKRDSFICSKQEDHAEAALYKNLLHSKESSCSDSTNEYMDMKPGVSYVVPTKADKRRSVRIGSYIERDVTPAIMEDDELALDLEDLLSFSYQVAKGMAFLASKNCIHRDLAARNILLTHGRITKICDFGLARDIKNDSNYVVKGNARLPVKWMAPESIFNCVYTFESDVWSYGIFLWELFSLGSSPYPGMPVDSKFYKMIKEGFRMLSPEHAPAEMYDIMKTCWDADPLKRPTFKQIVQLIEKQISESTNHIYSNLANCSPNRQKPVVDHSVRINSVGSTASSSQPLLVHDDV
IKBKE (IKK epsilon), sequence (Q14164 whole entry): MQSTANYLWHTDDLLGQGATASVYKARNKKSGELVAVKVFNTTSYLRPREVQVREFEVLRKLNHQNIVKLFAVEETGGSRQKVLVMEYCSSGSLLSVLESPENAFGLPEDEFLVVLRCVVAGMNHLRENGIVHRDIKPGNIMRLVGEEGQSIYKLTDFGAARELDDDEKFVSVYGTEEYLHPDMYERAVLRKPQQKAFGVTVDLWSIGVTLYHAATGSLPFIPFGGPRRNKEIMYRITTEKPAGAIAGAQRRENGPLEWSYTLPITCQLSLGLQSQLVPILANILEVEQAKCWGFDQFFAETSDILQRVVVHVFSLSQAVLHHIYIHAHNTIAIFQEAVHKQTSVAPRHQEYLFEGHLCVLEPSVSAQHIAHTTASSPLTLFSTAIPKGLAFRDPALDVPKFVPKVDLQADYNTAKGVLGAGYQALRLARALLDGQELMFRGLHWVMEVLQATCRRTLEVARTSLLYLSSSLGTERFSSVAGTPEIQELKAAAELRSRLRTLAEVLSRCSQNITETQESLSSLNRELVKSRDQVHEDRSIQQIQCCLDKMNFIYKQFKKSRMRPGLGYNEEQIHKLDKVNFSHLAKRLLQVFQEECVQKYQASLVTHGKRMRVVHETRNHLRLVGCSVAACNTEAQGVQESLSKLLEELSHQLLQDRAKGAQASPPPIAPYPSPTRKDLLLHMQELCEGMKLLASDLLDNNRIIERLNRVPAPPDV
MET M1250T, sequence (P08581 whole entry M1250T): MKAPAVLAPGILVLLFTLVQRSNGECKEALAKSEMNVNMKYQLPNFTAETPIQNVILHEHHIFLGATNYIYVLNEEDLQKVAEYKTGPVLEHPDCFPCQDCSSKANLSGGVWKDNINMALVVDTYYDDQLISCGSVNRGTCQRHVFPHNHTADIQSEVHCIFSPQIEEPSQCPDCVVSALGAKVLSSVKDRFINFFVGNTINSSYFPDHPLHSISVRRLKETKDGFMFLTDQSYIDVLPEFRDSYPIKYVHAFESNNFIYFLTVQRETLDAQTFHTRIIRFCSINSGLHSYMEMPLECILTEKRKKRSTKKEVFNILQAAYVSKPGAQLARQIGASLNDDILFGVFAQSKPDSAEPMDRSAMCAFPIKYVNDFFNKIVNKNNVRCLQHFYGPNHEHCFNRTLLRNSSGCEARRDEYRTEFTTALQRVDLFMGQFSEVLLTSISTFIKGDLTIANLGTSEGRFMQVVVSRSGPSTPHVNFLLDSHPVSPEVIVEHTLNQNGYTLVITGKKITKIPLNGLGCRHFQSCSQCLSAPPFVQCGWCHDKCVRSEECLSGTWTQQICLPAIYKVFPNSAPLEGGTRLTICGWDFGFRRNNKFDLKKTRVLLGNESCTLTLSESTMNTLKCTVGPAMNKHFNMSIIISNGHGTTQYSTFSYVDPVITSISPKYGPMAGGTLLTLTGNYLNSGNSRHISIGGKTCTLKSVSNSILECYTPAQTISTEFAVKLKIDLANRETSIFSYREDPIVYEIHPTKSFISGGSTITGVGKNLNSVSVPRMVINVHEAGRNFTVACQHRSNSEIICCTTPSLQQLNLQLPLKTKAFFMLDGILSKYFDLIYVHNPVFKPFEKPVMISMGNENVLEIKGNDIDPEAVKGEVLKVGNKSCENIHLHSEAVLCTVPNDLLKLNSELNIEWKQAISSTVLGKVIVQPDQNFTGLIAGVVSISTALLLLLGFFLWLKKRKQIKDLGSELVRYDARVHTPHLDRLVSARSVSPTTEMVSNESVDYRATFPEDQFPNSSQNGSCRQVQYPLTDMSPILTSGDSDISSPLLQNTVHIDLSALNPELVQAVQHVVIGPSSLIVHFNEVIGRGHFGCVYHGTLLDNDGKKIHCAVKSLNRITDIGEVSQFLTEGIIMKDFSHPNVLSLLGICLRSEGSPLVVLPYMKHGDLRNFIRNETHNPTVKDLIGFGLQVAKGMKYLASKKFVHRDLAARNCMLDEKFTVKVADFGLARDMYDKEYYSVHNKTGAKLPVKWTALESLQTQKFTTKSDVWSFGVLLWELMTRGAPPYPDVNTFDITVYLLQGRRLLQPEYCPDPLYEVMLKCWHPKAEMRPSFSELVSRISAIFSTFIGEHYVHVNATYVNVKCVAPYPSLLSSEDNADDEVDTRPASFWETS
NEK4, sequence (P51957 whole entry): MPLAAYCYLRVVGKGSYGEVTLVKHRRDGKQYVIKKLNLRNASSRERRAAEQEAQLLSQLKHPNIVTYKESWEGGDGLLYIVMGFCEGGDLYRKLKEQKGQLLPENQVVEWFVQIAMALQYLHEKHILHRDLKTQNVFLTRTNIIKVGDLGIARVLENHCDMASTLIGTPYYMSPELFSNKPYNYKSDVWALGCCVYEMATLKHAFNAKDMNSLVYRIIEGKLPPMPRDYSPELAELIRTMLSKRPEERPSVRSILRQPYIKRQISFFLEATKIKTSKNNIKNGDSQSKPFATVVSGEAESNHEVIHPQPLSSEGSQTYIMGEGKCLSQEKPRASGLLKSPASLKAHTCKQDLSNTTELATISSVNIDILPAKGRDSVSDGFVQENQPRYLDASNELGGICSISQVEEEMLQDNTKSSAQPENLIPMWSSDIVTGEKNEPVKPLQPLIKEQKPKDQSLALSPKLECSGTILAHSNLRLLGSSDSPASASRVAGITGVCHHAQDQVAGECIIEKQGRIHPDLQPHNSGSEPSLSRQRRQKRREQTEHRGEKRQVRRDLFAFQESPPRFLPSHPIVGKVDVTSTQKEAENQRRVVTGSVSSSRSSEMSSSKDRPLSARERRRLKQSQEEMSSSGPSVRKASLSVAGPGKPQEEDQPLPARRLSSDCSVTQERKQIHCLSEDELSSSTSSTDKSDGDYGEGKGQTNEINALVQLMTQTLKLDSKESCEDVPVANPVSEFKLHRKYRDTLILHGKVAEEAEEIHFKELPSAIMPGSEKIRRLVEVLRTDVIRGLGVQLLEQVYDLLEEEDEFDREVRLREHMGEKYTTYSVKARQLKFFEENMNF

Q: Which results are given for `COc1ccc2nc3cc(Cl)ccc3c(Nc3cc(CN4CCCC4)c(O)c(CN4CCCC4)c3)c2n1` [Pyronaridine, 4-[(7-Chloro-2-methoxybenzo[b][1,5]naphthyridin-10-yl)amino]-2,6-bis(1-pyrrolidinylmethyl)phenol phosphate (1:4)]?
A: inhibition at 1 µM (GRK7): 4%; inhibition at 1 µM (MERTK (cMER)): 2%; inhibition at 1 µM (IGF1R): 6%; inhibition at 1 µM (CDK5/p35): 3%; inhibition at 1 µM (PHKG1): -1%; inhibition at 1 µM (KIT V559D V654A): -1%; inhibition at 1 µM (MAP4K5 (KHS1)): 5%; inhibition at 1 µM (DNA-PK): 5%; inhibition at 1 µM (FGFR3 K650E): -4%; inhibition at 1 µM (TEK (Tie2)): 5%; inhibition at 1 µM (MAPK10 (JNK3)): 0%; inhibition at 1 µM (MET M1250T): 0%; inhibition at 1 µM (EPHB4): 7%; inhibition at 1 µM (AMPK (A1/B2/G3)): 4%; inhibition at 1 µM (CSNK1E (CK1 epsilon)): 1%; inhibition at 1 µM (JAK2 JH1 JH2 V617F): 0%; inhibition at 1 µM (CHEK1 (CHK1)): 8%; inhibition at 1 µM (CDC42 BPB (MRCKB)): -3%; inhibition at 1 µM (PDGFRA (PDGFR alpha)): 2%; inhibition at 1 µM (FLT4 (VEGFR3)): 3%; inhibition at 1 µM (RPS6KB2 (p70S6Kb)): -4%; inhibition at 1 µM (IKBKE (IKK epsilon)): 2%; inhibition at 1 µM (ERBB2 (HER2)): 2%; inhibition at 1 µM (ROS1): -6%; inhibition at 1 µM (INSRR (IRR)): -1%; inhibition at 1 µM (NEK4): 4%; inhibition at 1 µM (MAP3K8 (COT)): -6%; inhibition at 1 µM (AKT2 (PKB beta)): 1%
